The experiment has as its system HBsAg secretion in HepG2.2.15 cells. In words: HBsAg assay (chemiluminescence immunoassay of secreted HBsAg in culture supernatant). Type of experiment: cell-based, HBV. As to conditions: concentration at which HBsAg secretion was reduced by 50% compared to the no drug control, read-out: IC50 (HBsAg assay). The gist of the method: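 IC50 taken from dose-response curves as the concentration halving secreted HBsAg relative to DMSO control. Measured by chemiluminescence immunoassay of culture supernatant from constitutively HBV-expressing HepG2.2.15 cells, seeded at 1.5×10^4/well in duplicate and exposed to three-fold serial compound dilutions at 1% final DMSO.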

[1] abbreviates: Hepatitis B virus, HepG2.2.15, HepG2.2.15 cells.

32 compounds from patent US9845322B2 (Hoffmann-La Roche Inc., priority 2016, dated 2017) can be followed below.

Where two headings read alike, the source gives them in different places.

As for `CC1c2cnc(-c3ncccn3)nc2CCN1c1cc(F)c(F)c(OC(F)F)c1` (centres unmarked) [Example 71, 6-[3-(difluoromethoxy)-4,5-difluoro-phenyl]-5-methyl-2-pyrimidin-2-yl-7,8-dihydro-5H-pyrido[4,3-d]pyrimidine], under setting [1], the IC50 amounted to 68 nM.

For `COc1cc(F)cc(N2CCc3nc(-c4ncccn4)ncc3C2C)c1` (centres unmarked) [Example 72, 6-(3-fluoro-5-methoxy-phenyl)-5-methyl-2-pyrimidin-2-yl-7,8-dihydro-5H-pyrido[4,3-d]pyrimidine], under “HepG2.2.15 cells”, the IC50 is 22 nM.

Regarding `CC1c2cnc(-c3ncccn3)nc2CCN1c1cc(F)c(F)c(OCC2CCOC2)c1` (centres unmarked) [Example 75, 6-[3,4-difluoro-5-(tetrahydrofuran-3-ylmethoxy)phenyl]-5-methyl-2-pyrimidin-2-yl-7,8-dihydro-5H-pyrido[4,3-d]pyrimidine], the half-maximal inhibitory concentration (IC50) under setting [1] was found to be 21 nM.

Turning to `CC1c2cnc(-c3ncccn3)nc2CCN1c1cc(F)c(F)c(OCC2COC2)c1` (centres unmarked) [Example 76, 6-[3,4-difluoro-5-(oxetan-3-ylmethoxy)phenyl]-5-methyl-2-pyrimidin-2-yl-7,8-dihydro-5H-pyrido[4,3-d]pyrimidine], under setting [1], the IC50 worked out at 28 nM.

In the case of `CC1c2cnc(-c3ncccn3)nc2CCN1c1cc(F)c(F)c(OCC2(CO)CC2)c1` (centres unmarked) [Example 77, [1-[[2,3-difluoro-5-(5-methyl-2-pyrimidin-2-yl-7,8-dihydro-5H-pyrido[4,3-d]pyrimidin-6-yl)phenoxy]methyl]cyclopropyl]methanol], the IC50 under setting [1] was found to be 105 nM.

For the compound `CC1c2cnc(-c3ncccn3)nc2CCN1c1cc(F)c(F)c(OCCCS(=O)(=O)O)c1` (centres unmarked) [Example 78, 3-[2,3-difluoro-5-(5-methyl-2-pyrimidin-2-yl-7,8-dihydro-5H-pyrido[4,3-d]pyrimidin-6-yl)phenoxy]propane-1-sulfonic acid], the 50% inhibitory concentration (IC50) under setting [1] worked out at 976 nM.

Turning to `CC1c2cnc(-c3ncccn3)nc2CCN1c1cc(F)c(F)c(OCCC2COC2)c1` (centres unmarked) [Example 79, 6-[3,4-difluoro-5-[2-(oxetan-3-yl)ethoxy]phenyl]-5-methyl-2-pyrimidin-2-yl-7,8-dihydro-5H-pyrido[4,3-d]pyrimidine], the IC50 under setting [1] stood at 15 nM.

Regarding `CC1c2cnc(-c3ncccn3)nc2CCN1c1cc(F)c(F)c(OCCCN2CCOCC2=O)c1` (centres unmarked) [Example 80], the 50% inhibitory concentration (IC50) under setting [1] was determined as 71 nM.

As to `CC1c2cnc(-c3ncccn3)nc2CCN1c1cc(F)cc(C(F)(F)F)c1` (centres unmarked) [Example 81, 6-[3-fluoro-5-(trifluoromethyl)phenyl]-5-methyl-2-pyrimidin-2-yl-7,8-dihydro-5H-pyrido[4,3-d]pyrimidine], under setting [1], the IC50 was found to be 131 nM.

For the compound `CC1c2cnc(-c3ncccn3)nc2CCN1c1cc(F)c(F)c(OCC2CC2(F)F)c1` (centres unmarked) [Example 82], the IC50 under setting [1] is 30 nM.

`CC1c2cnc(-c3ncccn3)nc2CCN1c1cc(F)c(F)c(OCC(=O)NC2CCOC2)c1` (centres unmarked) [Example 83, 2-[2,3-difluoro-5-(5-methyl-2-pyrimidin-2-yl-7,8-dihydro-5H-pyrido[4,3-d]pyrimidin-6-yl)phenoxy]-N-tetrahydrofuran-3-yl-acetamide]: the half-maximal inhibitory concentration (IC50) under setting [1] came out at 190 nM.

As to `CC1c2cnc(-c3ncccn3)nc2CCN1c1cc(F)c(F)c(OCC(=O)N2CCOCC2)c1` (centres unmarked) [Example 84, 2-[2,3-difluoro-5-(5-methyl-2-pyrimidin-2-yl-7,8-dihydro-5H-pyrido[4,3-d]pyrimidin-6-yl)phenoxy]-1-morpholino-ethanone], the IC50 under setting [1] turned out to be 266 nM.

Regarding `CCOC(=O)CCCCCCOc1cc(N2CCc3nc(-c4ncccn4)ncc3C2C)cc(F)c1F` (centres unmarked) [Example 85, ethyl 7-[2,3-difluoro-5-(5-methyl-2-pyrimidin-2-yl-7,8-dihydro-5H-pyrido[4,3-d]pyrimidin-6-yl)phenoxy]heptanoate], the IC50 under setting [1] amounted to 156 nM.

Turning to `CC1c2cnc(-c3ncccn3)nc2CCN1c1cc(F)c(F)c(OCC2CC2)c1` (centres unmarked) [Example 88, 6-[3-(cyclopropylmethoxy)-4,5-difluoro-phenyl]-5-methyl-2-pyrimidin-2-yl-7,8-dihydro-5H-pyrido[4,3-d]pyrimidine], the IC50 under setting [1] came out at 27 nM.

With `CC1c2cnc(-c3ncccn3)nc2CCN1c1cc(F)c(F)c(OCC2CCOCC2)c1` (centres unmarked) [Example 89, 6-[3,4-difluoro-5-(tetrahydropyran-4-ylmethoxy)phenyl]-5-methyl-2-pyrimidin-2-yl-7,8-dihydro-5H-pyrido[4,3-d]pyrimidine], the concentration for half-maximal inhibition (IC50) under setting [1] stood at 21 nM.

With `CC1c2cnc(-c3ncccn3)nc2CCN1c1cc(F)c(F)c(OCCCNC(=O)OC(C)(C)C)c1` (centres unmarked) [Example 90, tert-butyl N-[3-[2,3-difluoro-5-(5-methyl-2-pyrimidin-2-yl-7,8-dihydro-5H-pyrido[4,3-d]pyrimidin-6-yl)phenoxy]propyl]carbamate], under setting [1], the concentration for half-maximal inhibition (IC50) was determined as 22 nM.

Consider `CC1c2cnc(-c3ncccn3)nc2CCN1c1cc(F)c(F)c(OCCCN)c1` (centres unmarked) [Example 91, 3-[2,3-difluoro-5-(5-methyl-2-pyrimidin-2-yl-7,8-dihydro-5H-pyrido[4,3-d]pyrimidin-6-yl)phenoxy]propan-1-amine], for which the IC50 under setting [1] came to 483 nM.

For `CC(=O)NCCCOc1cc(N2CCc3nc(-c4ncccn4)ncc3C2C)cc(F)c1F` (centres unmarked) [Example 92, N-[3-[2,3-difluoro-5-(5-methyl-2-pyrimidin-2-yl-7,8-dihydro-5H-pyrido[4,3-d]pyrimidin-6-yl)phenoxy]propyl]acetamide], the 50% inhibitory concentration (IC50) under setting [1] is 54 nM.

Regarding `CC1c2cnc(-c3ncccn3)nc2CCN1c1cc(F)c(F)c(OCCCNS(=O)(=O)C2CC2)c1` (centres unmarked) [Example 93, N-[3-[2,3-difluoro-5-(5-methyl-2-pyrimidin-2-yl-7,8-dihydro-5H-pyrido[4,3-d]pyrimidin-6-yl)phenoxy]propyl]cyclopropanesulfonamide], under setting [1], the IC50 was 61 nM.

`COCCS(=O)(=O)NCCCOc1cc(N2CCc3nc(-c4ncccn4)ncc3C2C)cc(F)c1F` (centres unmarked) [Example 94, N-[3-[2,3-difluoro-5-(5-methyl-2-pyrimidin-2-yl-7,8-dihydro-5H-pyrido[4,3-d]pyrimidin-6-yl)phenoxy]propyl]-2-methoxy-ethanesulfonamide]: the 50% inhibitory concentration (IC50) under setting [1] came out at 70 nM.

On to `CC1c2cnc(-c3ncccn3)nc2CCN1c1cc(F)c(F)c(OCCCNC(=O)CCCCl)c1` (centres unmarked) [Example 95, 4-chloro-N-[3-[2,3-difluoro-5-(5-methyl-2-pyrimidin-2-yl-7,8-dihydro-5H-pyrido[4,3-d]pyrimidin-6-yl)phenoxy]propyl]butanamide], for which the IC50 under setting [1] worked out at 724 nM.

Take `CC1c2cnc(-c3ncccn3)nc2CCN1c1cc(F)c(F)c(OCCCN2CCCC2=O)c1` (centres unmarked) [Example 96, 1-[3-[2,3-difluoro-5-(5-methyl-2-pyrimidin-2-yl-7,8-dihydro-5H-pyrido[4,3-d]pyrimidin-6-yl)phenoxy]propyl]pyrrolidin-2-one]: the 50% inhibitory concentration (IC50) under setting [1] came to 94 nM.

With `CC1c2cnc(-c3ncccn3)nc2CCN1c1cc(F)c(F)c(OCCCS(N)(=O)=O)c1` (centres unmarked) [Example 97, 3-[2,3-difluoro-5-(5-methyl-2-pyrimidin-2-yl-7,8-dihydro-5H-pyrido[4,3-d]pyrimidin-6-yl)phenoxy]propane-1-sulfonamide], under setting [1], the half-inhibitory concentration (IC50) amounted to 154 nM.

With `CC1c2cnc(-c3ncccn3)nc2CCN1c1cc(F)c(F)c(OCCCN2CCN(C(=O)OC(C)(C)C)CC2=O)c1` (centres unmarked) [Example 98, tert-butyl 4-[3-[2,3-difluoro-5-(5-methyl-2-pyrimidin-2-yl-7,8-dihydro-5H-pyrido[4,3-d]pyrimidin-6-yl)phenoxy]propyl]-3-oxo-piperazine-1-carboxylate], the IC50 under setting [1] was 372 nM.

Take `CC1c2cnc(-c3ncccn3)nc2CCN1c1cc(F)c(F)c(OCCCN2CCNCC2=O)c1` (centres unmarked) [Example 99, 1-[3-[2,3-difluoro-5-(5-methyl-2-pyrimidin-2-yl-7,8-dihydro-5H-pyrido[4,3-d]pyrimidin-6-yl)phenoxy]propyl]piperazin-2-one]: the 50% inhibitory concentration (IC50) under setting [1] turned out to be 1270 nM.

`CC1c2cnc(-c3ncccn3)nc2CCN1c1cc(F)c(F)c(OCC2CCS(=O)(=O)C2)c1` (centres unmarked) [Example 100]: the IC50 under setting [1] worked out at 96 nM.

`CC1c2cnc(-c3ncccn3)nc2CCN1c1cc(F)c(F)c(OCCCN2CCN(C)CC2)c1` (centres unmarked) [Example 101, 6-[3,4-difluoro-5-[3-(4-methylpiperazin-1-yl)propoxy]phenyl]-5-methyl-2-pyrimidin-2-yl-7,8-dihydro-5H-pyrido[4,3-d]pyrimidine]: under setting [1], the half-inhibitory concentration (IC50) was 113 nM.

For `COC(=O)C(CCOc1cc(N2CCc3nc(-c4ncccn4)ncc3C2C)cc(F)c1F)NC(=O)OC(C)(C)C` (centres unmarked) [Example 102, methyl 2-(tert-butoxycarbonylamino)-4-[2,3-difluoro-5-(5-methyl-2-pyrimidin-2-yl-7,8-dihydro-5H-pyrido[4,3-d]pyrimidin-6-yl)phenoxy]butanoate], the IC50 under setting [1] was 249 nM.

As for `CC1c2cnc(-c3ncccn3)nc2CCN1c1cc(F)c(F)c(OCCC(NC(=O)OC(C)(C)C)C(=O)O)c1` (centres unmarked) [Example 103, 2-(tert-butoxycarbonylamino)-4-[2,3-difluoro-5-(5-methyl-2-pyrimidin-2-yl-7,8-dihydro-5H-pyrido[4,3-d]pyrimidin-6-yl)phenoxy]butanoic acid], the IC50 under setting [1] came to 2160 nM.

Turning to `CC1c2cnc(-c3ncccn3)nc2CCN1c1cc(F)c(F)c(OCCC(N)C(=O)O)c1` (centres unmarked) [Example 104, 2-amino-4-[2,3-difluoro-5-(5-methyl-2-pyrimidin-2-yl-7,8-dihydro-5H-pyrido[4,3-d]pyrimidin-6-yl)phenoxy]butanoic acid], the IC50 under setting [1] came to 19000 nM.

On to `CC1c2cnc(-c3ncccn3)nc2CCN1c1cc(F)c(F)c(OCCC2CCCO2)c1` (centres unmarked) [Example 105, 6-[3,4-difluoro-5-(2-tetrahydrofuran-2-ylethoxy)phenyl]-5-methyl-2-pyrimidin-2-yl-7,8-dihydro-5H-pyrido[4,3-d]pyrimidine], for which, under setting [1], the IC50 came out at 23 nM.

For `CC1c2cnc(-c3ncccn3)nc2CCN1c1cc(F)c(F)c(OCCC[S+](C)[O-])c1` (centres unmarked) [Example 106, 6-[3,4-difluoro-5-(3-methylsulfinylpropoxy)phenyl]-5-methyl-2-pyrimidin-2-yl-7,8-dihydro-5H-pyrido[4,3-d]pyrimidine], the half-maximal inhibitory concentration (IC50) under setting [1] is 208 nM.

For orientation: IC50 means the midpoint of a concentration-inhibition curve.
